Reference: patent US5891454A, “Anti-cancer drug and special tumor necrotizing agent” (Wu; Alexander, priority 1997, dated 1999)
Values joined by “and” are separate entries in the source; they are usually repeats but may differ in a detail not shown here. Equal values may be shown once.

Tests used:
[1] = system: mouse transplanted liver tumor; assay: Anti-tumor effect on mouse transplanted liver tumor (I.M.); type: in vivo; conditions: CTX 18.0 mg/kg/d x10
Description: (§1) A solvent blank (i.e., the specifically designed solution illustrated in Table 1), a saline blank as a […] control are used as controls for the in vivo tests. As per the Drug Administration Law of the People's Republic of China, and the rules governing observation of the pharmaco-dynamic study of the therapy action, the tumors were surgically removed from tumor infected mice and were homogenized to form suspensions followed by filtration to make a suspension solution at 1×10^6 -10^7 cell/ml. The suspension was injected (i.e., 0.2 ml per mice) into the test mice for tumor growth until the transplanted tumor cells were established and grew up to a size of 0.5×0.5 cm. […] At the end of the in vivo tests, several parameters such as mouse body weight, average tumor weight and percentage of tumor inhibition, are determined.
(§2) % inhibition rate=(average tumor weight of the solvent group or
(§3) tumor rate of the solvent group

mouse S-180 sarcoma = assay: Anti-tumor effect on mouse transplanted sarcoma S-180 (I.M.); type: in vivo; conditions: CTX 18.0 mg/kg/d x10
Description: as §1, §2, §3

Solubility in water = type: physicochemical; conditions: water or a water-based solution
skin fungal diseases = conditions: 7-8% solution by weight with propylene glycol; cited from earlier work
[2] = P <0.01 vs saline control, three experiments

Compound	Anti-tumor inhibit rate [1, 2]	Body weight final ([1]; outset 19.9, 20.3, 20.9 in three experiments, in g (unit assumed))	Ave. weight of tumor (x + SD) ([1]; three experiments)	Anti-tumor inhibit rate (mouse S-180 sarcoma; [2])	Body weight final (mouse S-180 sarcoma; outset 22.4, 22.6, 19.3 in three experiments, in g (unit assumed))	Ave. weight of tumor (x ± SD) (mouse S-180 sarcoma; three experiments)	dissolution in water (Solubility in water)	topical anti-fungal activity (skin fungal diseases)
O=P1(N(CCCl)CCCl)NCCCO1 (centres unmarked) [CTX]	40.7% and 46.2% and 60.0%	27.9 and 28.5	1.81 ± 0.22 g and 1.57 ± 0.63 g and 0.94 ± 0.41 g	51.6% and 53.3% and 52.5%	30.9 and 26.4	1.37 ± 0.47 g and 1.29 ± 0.43 g and 1.14 ± 0.28 g	–	–
Cc1ccc(S(N)(=O)=O)cc1 [para-toluene sulfonamide]	–	–	–	–	–	–	not readily dissolved in water or in a water-based solution	highly effective
